From ChEMBL document CHEMBL3997833, “Efficient synthesis of α-fluoromethylhistidine di-hydrochloride and demonstration of its efficacy as a glutathione S-transferase inhibitor” (Bioorg Med Chem Lett, 2017)

Tests used:
[1] = test system: GST (glutathione S-transferase); experiment: (§1) Inhibition of Schistosoma japonicum C-terminal His6-tagged GST expressed in Escherichia coli BL21(DE3) assessed as reduction in GSH transfer activity by measuring residual activity at 150 uM using GSH/CDNB co-substrate mixture preincubated for 10 mins followed by substrate addition by colorimetric method relative to control; conditions: probe GSH/CDNB co-substrate mixture, read-out: Activity
[2] = test system: GST (glutathione S-transferase); experiment: as §1, with “10 mM” for “150 uM”; conditions: probe GSH/CDNB co-substrate mixture, read-out: Activity

| activity at 10000 µM [2] [%] | Compound | activity at 150 µM [1] [%] |
| --- | --- | --- |
| – | N[C@@](CF)(Cc1cnc[nH]1)C(=O)O | 57 |
| 33 | Nc1ccc(C(=O)O)cc1 [AMINOBENZOIC ACID] | – |
